Assay results as given in patent publication US8680070B2, “Medical implants containing adenosine receptor agonists and methods for inhibitiing medical implant loosening” (New York University, priority 2007, dated 2014).

Tests used:
TRAF6 protein = assay: Western blotting of TRAF6 protein in RAW264.7 cells; format: cell-based, murine; details: 1 μg/ml for 4 days, then RANKL 30 ng/ml, β-actin as comparison
Experimental: Western blotting. Osteoclast precursors were preincubated with or without CGS21680 (1 μg/ml) or ZM241385 (1 μg/ml) for 4 days and then stimulated with RANKL (30 ng/ml) for the indicated period. For isolation of total proteins, cells were washed twice with PBS and lysed in RIPA buffer. Proteins were estimated and boiled with sample buffer for 5 min and were subjected to electrophoresis on 10% SDS-PAGE. Proteins were transferred onto a nitrocellulose membrane. Membranes were blocked for 2 hours in blocking solution (5% nonfat dry milk in TBS containing 0.1% Tween 20) and exposed to primary Abs overnight at 4° C. After washing, the membranes were incubated for 1 hour at room temperature with secondary Ab, and the proteins were detected using ECL reagents according to the manufacturer's instructions. To reprobe the membranes with other Abs, the membranes were stripped with 100 mM 2-ME, 2% SDS, and 62.5 mM Tris-HCl (pH 6.9) for 20 min at 50° C., followed by immunoblotting as described above.

RAW264.7 cells = assay: Osteoclastogenesis: TRAP-positive multinucleated cells from RANKL-stimulated RAW264.7 cells; format: cell-based, murine; details: RANKL 30 ng/ml, four days of culture, vs untreated cells, listed as Adenosine A2A receptor antagonist
Experimental: Osteoclast formation was evaluated by quantification of TRAP-positive MNCs as described previously. TRAP is preferentially expressed at high levels in osteoclasts and is considered, especially in the mouse, to be an osteoclast marker. After incubation, cells on wells were washed in PBS, fixed in 4% paraformaldehyde for 10 min, and stained for acid phosphatase in the presence of 0.3 M sodium tartrate (Sigma-Aldrich). The substrate used was napthol AS-BI phosphate (Sigma-Aldrich). Only those cells that were strongly TRAP-positive (dark red) and have more than 3 nuclei were counted by light microscopy. To evaluate the size of the Osteoclast over time, we counted the number of nuclei per OCL in 50 OCLs for each of the three wells(n=150). The mean number of nuclei per OCL (MNN) and SE were calculated for each time-point, and ANOVA analysis was performed to determine statistically significant differences. RAW264.7 is a macrophage cell line having the capacity to form osteoclast-like cells. Because the RAW264.7 cells provide an excellent in vitro model for dissecting the cellular and molecular regulation of osteoclast differentiation and activation, we studied the effect of adenosine A2A receptors on the osteoclasts generated from the RAW264.7 cells. Cell Culture and Osteoclastogenesis. […]

**Q.** How did the TRAF6 levels (TRAF6 protein) turn out when `CCNC(=O)[C@H]1O[C@@H](n2cnc3c(N)nc(NCCc4ccc(CCC(=O)O)cc4)nc32)[C@H](O)[C@@H]1O` [A2A receptor agonist, CGS 21680] was run?
**A.** diminish

**Q.** Which “osteoclast formation (number of multinucleated TRAP+ osteoclasts)” value (RAW264.7 cells) does the source give for `Nc1nc(NCCc2ccc(O)cc2)nc2nc(-c3ccco3)nn12` [adenosine A2A receptor antagonist, ZM241385] here?
**A.** increased number
